Results taken from patent US12479816B2, “20-HETE formation inhibitors” (UNIVERSITY OF PITTSBURGH—OF THE COMMONWEALTH SYSTEM OF …, priority 2019, dated 2025).
Where two headings read alike, the source gives them in different places.

What was measured:
rCYP4F2 = biological target: T1, rCYP4F2 (Homo sapiens, UniProt P78329); test: Inhibition of 20-HETE formation at 250 or 500 nM in rCYP4F2 incubations; assay type: biochemical; conditions: 500 nM compound; rCYP4F2 25 pmol/mL; read-out: rCYP4F2 % inh. @ 500 nM
T1 sequence (P78329 5-520): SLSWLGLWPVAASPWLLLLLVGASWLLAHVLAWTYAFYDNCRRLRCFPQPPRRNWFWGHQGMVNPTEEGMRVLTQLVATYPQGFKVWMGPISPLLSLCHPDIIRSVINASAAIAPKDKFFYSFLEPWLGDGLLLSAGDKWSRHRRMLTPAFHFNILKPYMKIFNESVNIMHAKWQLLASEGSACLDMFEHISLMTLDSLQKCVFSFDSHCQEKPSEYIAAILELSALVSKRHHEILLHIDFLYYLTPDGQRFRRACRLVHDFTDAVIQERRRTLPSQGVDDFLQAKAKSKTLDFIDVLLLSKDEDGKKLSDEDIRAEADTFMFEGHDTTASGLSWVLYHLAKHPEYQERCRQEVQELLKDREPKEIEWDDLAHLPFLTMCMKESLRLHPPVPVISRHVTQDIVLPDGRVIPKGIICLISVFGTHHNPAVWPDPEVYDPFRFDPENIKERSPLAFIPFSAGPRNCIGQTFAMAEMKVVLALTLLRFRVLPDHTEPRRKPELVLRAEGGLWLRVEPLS
In short: (§1)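 Protein 300 μg/ml (microsomes) / 25 pmol/mL (rCYP4F2); AA 100 μM; NADPH 1 mM start; KPi 0.12 M + 5 mM MgCl2; 20 min, 37° C. Read-out: 20-HETE by UPLC-MS/MS (d6 IS), % of vehicle, n=3.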

[1] = test system: 20-HETE formation (CYP4) in HLM; test: IC50 determination, 20-HETE formation in HLM; assay type: biochemical, human; conditions: HLM 300 μg/ml, AA 100 μM, 12 concentrations
Protocol: Microsomal incubations contained HLM, RLM (300 μg/ml), AA (100 μM), NADPH (1 mM) and test compounds at 12 concentrations (0.1 nM-50 μM) in a 1 ml total volume in microsomal incubation buffer (0.12 M potassium phosphate buffer containing 5 mM magnesium chloride). Reaction was started by adding NADPH to the incubates and was carried out at 37° C. in a shaking water bath for 20 min. Reaction was stopped by placing tubes on ice, followed by adding 12.5 μl 20-HETE-d6 as internal standard to each sample. Microsomal incubations were extracted with 3 ml ethyl ether twice, dried down under nitrogen gas and reconstituted in 125 μl 80:20 methanol:deionized H2O for analysis. 20-HETE formation was quantified using the validated UPLC-MS/MS assay described above and normalized by vehicle group. HET0016 (250 nM) was used as positive control. Incubates without NADPH group served as the negative control. IC50 was determined by fitting the dose-response curve using Graphpad Prism nonlinear regression.

[2] = test system: 20-HETE formation (CYP4) in RKM; test: Inhibition of 20-HETE formation at 250 or 500 nM in RKM microsomal incubations; assay type: biochemical, rat; conditions: 500 nM compound; RKM 300 μg/ml
Protocol: To screen the inhibitory effects against 20-HETE formation, compounds were screened in HLM, RLM, RKM and rCYP4F2 microsomal incubations. Compounds dissolved in either 100% methanol or 100% DMSO to yield 10 mM stock solution. Microsomal incubations containing HLM, RLM, RKM (300 μg/ml) or rCYP4F2 (25 pmol/mL), AA (100 μM), NADPH (1 mM) treated with test compounds at various concentrations (500 nM or 250 nM) in a 1 ml total volume in incubation buffer (0.12 M potassium phosphate buffer containing 5 mM magnesium chloride). Reaction was started by adding NADPH to the incubates and was carried out at 37° C. in a shaking water bath for 20 min. Reaction was stopped by placing tubes on ice, followed by adding 125 μl 20-HETE-d6 as internal standard to each sample. Microsomal incubations were extracted with 3 ml ethyl ether twice, dried down under nitrogen gas and reconstituted in 125 μl 80:20 methanol:deionized H2O for analysis. 20-HETE formation was quantified using a validated UPLC-MS/MS assay and normalized by vehicle group. Each compound had three replications (n=3). Vehicle group was used as control to calculate percentage of 20-HETE formation rate. HET0016 (250 nM) was used as positive control. Incubates without NADPH group served as the negative control. An Acquity ultra performance LC autosampler (Waters, Milford, MA) was used to isolate 20-HETE on an UPLC BEH C18, 1.7 μm (2.1×100 mm) reversed-phase column (Waters, Milford, MA) protected by a guard column (2.1×5 mm; Waters, Milford, MA) of the same packing material. Column temperature was maintained at 55° C. Mobile phases consisted of 0.005% acetic acid, 5% acetonitrile in deionized water (A) and 0.005% acetic acid in acetonitrile (B). The flow rate for mobile phases is 0.5 ml/min. The initial mixture of mobile phase was 65:35 of A and B. Mobile phase B increased at 0.4 minutes after injection from 35% to 70% in a linear gradient over 4 minutes, and again increased to 95% over 0.5 minutes where it remained for 0.3 minutes. This was followed by a linear return to initial conditions over 0.1 minutes with a 1.5 minute pre-equilibration period prior to the next sample run. Total run time was 6.4 minutes for each injection. Injection volumes were 7.5 μl. Mass spectrometric analysis was carried out using a TSQ Quantum Ultra (Thermo Fisher Scientific, San Jose, CA) triple quadrupole mass spectrometer using heated electrospray ionization (HESI). Mass spectrometer was operated in negative selective reaction monitoring (SRM) mode with unit resolutions at both Q1 and Q3 set at 0.70 Da full width at half maximum. Scan time was set at 0.01 s and collision gas pressure was 1.3 mTorr. Quantitation of 20-HETE by SRM was performed by monitoring the m/z. Analytical data was acquired and analyzed using Xcaliber 3.0 data system (ThermoFinnigan, San Jose, CA).

[3] = test system: 20-HETE formation (CYP4) in RLM; test: Inhibition of 20-HETE formation at 250 or 500 nM in RLM microsomal incubations; assay type: biochemical, rat; conditions: 500 nM compound; RLM 300 μg/ml
In short: as §1

[4] = Turbidometric solubility determination; assay type: physicochemical; conditions: PBS with 1% DMSO, aqueous buffer, kinetic from dmso stock, room temperature
Protocol: Solubility determinations shown in Table 3 were obtained turbidometrically and in a manner similar to the one described in Perez et al., J. Biomol. Screen, 2015, 20(2), 254-64. The method requires small volumes of 100× stock concentration drug solution to be prepared in DMSO 0, 0.23, 0.47, 0.94, 1.88, 3.75, 7.5, 15.0, 30.0 and […]. The stock drug concentrations are then diluted 1:100 added into triplicate wells containing PBS in a clear bottom 384 well microtiter to achieve final testing concentrations of 0, 2.3, 4.7, 9.4, 18.8, 37.5, 75, 150, 300, 600 μM in 1% DMSO. The plate is allowed to equilibrate with constant shaking for 2 hours at room temperature. The plate is then placed in a SpectroMax V plate reader to measure absorbance at 620 nm. Increase in absorbance is evident in test wells which precipitation of the compound is evident. The plot of OD620 vs. drug concentration is used to calculate the maximum solubility limit as determined by a statistically significant increase in absorbance above the background levels.

[5] = test system: 20-HETE formation (CYP4) in HLM; test: Inhibition of 20-HETE formation at 250 or 500 nM in HLM microsomal incubations; assay type: biochemical, human; conditions: 500 nM compound; HLM 300 μg/ml, AA 100 μM, 20 min
In short: as §1

Structure (SMILES)	inhibition at 0.5 µM (rCYP4F2) [%]	IC50 [1] [µM]	RKM % inh. @ 500 nM [2] [%]	RLM % inh. @ 500 nM [3] [%]	solubility at 2 h ([4]; OD620, read-out: Max Solub) [µM]	solubility at 2 h ([4]; read-out: Solubility_ug/mL) [µg/mL]	HLM % inh. @ 500 nM [5] [%]
COc1ccc(C2CCN(c3cn[nH]c3)CC2)cn1 [Compound 32, 5-(1-(1H-Pyrazol-4-yl)piperidin-4-yl)-2-methoxypyridine]	67	0.13	25.00	0.00	391	101	59.00
O=S(=O)(c1ccccc1)C1CCN(c2ccn[nH]2)CC1 [Compound 41, 4-(Phenylsulfonyl)-1-(1H-pyrazol-5-yl)piperidine]	0		0.00	0.00	369	108	32.00
Cc1cccc(C2CCN(c3ccn[nH]3)CC2)c1 [Compound 33, 1-(1H-Pyrazol-5-yl)-4-(m-tolyl)piperidine]	69	0.18	16.00	12.00			72.00
COc1ccc(C2CCN(c3ccn[nH]3)CC2)cn1 [Compound 31, 5-(1-(1H-Pyrazol-5-yl)piperidin-4-yl)-2-methoxypyridine]	44		9.00	0.00	> 600	155	35.00
Cc1ccccc1C1CCN(c2cn[nH]c2)CC1 [Compound 36, 1-(1H-Pyrazol-4-yl)-4-(o-tolyl)piperidine]	61	0.65	4.00	0.00	752		46.00
O=C(c1ccc(C2CCN(c3cn[nH]c3)CC2)c(F)c1)N1CCCC1 [Compound 81, (4-(1-(1H-Pyrazol-4-yl)piperidin-4-yl)-3-fluorophenyl)(pyrrolidin-1-yl)methanone]	66	0.0474		19.30	353		83.1
Fc1cccc(C2CCN(c3cn[nH]c3)CC2)c1 [Compound 49, 4-(3-Fluorophenyl)-1-(1H-pyrazol-4-yl)piperidine]	90		28.00	31.00			80.00
CC(=O)N(C)c1ccc(C2CCN(c3ccn[nH]3)CC2)cc1 [Compound 27, N-(4-(1-(1H-Pyrazol-5-yl)piperidin-4-yl)phenyl)-N-methylacetamide]	14		0.00	8.00	> 600	179	20.00
Fc1cccc(C2CCN(c3ccn[nH]3)CC2)c1 [Compound 48, 4-(3-Fluorophenyl)-1-(1H-pyrazol-5-yl)piperidine]	63		8.00	0.00			67.00
c1ccc(N2CCN(c3cn[nH]c3)CC2)cc1 [Compound 5, 1-Phenyl-4-(1H-pyrazol-4-yl)piperazine]	2.6		0.00	0.00			24.50
CC(=O)Nc1ccc(C2CCN(c3ccn[nH]3)CC2)cc1 [Compound 29, N-(4-(1-(1H-Pyrazol-5-yl)piperidin-4-yl)phenyl)acetamide]	55	0.17	7.00	38.00	> 600	171	60.00
c1cnc(C2CCN(c3ccn[nH]3)CC2)nc1 [Compound 9, 2-(1-(1H-Pyrazol-5-yl)piperidin-4-yl)pyrimidine]	0		0.00	0.00			0.00
